Data set [1] has as its target T1, smDAC (S. mutans diadenylate cyclase, CdaA/DacA family) (Streptococcus mutans, UniProt Q8DTC4).
T1 construct: recombinant smDAC (from 116aa to 265aa)
Kind of data set: biochemical. Also on record: HPLC quantification of conversion of ATP into c-di-AMP by recombinant smDAC. Particulars: read-out: Normalized Enzymatic Inhibition (%). As for the experimental part: Eleven “hits” were validated using HPLC to eliminate false positives from the coralyne assay. […] (+)-Brazilin (NSC 8661), showing the greatest inhibitory activity, was further studied in a dose-dependent manner. Representative chromatograms of ATP (100 µM) and c-di-AMP (50 µM) standards were used as references to validate retention times (Fig. 3A and B). […] Representative chromatograms of HPLC reactions treated with dose-dependent concentrations were also obtained (Fig. S5). Excitingly, (+)-brazilin inhibited the conversion of ATP into c-di-AMP in a dose-dependent manner with an IC50 value of 25.1 ± 0.98 µM (Fig. 3H; Table S1). […] HPLC was also used to evaluate and compare bromophenol thiohydantoin, suramin, and tannic acid, all reported tmDisA inhibitors, to brazilin and 10% DMSO negative control.

Data set [2] deals with T1, smDAC (S. mutans diadenylate cyclase, CdaA/DacA family). Kind of data set: intrinsic tyrosine fluorescence quenching (modified Stern-Volmer); supported by HPLC enzyme inhibition, IC50 […], Ki […]. The format is binding.
Data set [3] has as its system Nc1ncnc2c1ncn2[C@@H]1O[C@H](COP(=O)(O)OP(=O)(O)OP(=O)(O)O)[C@@H](O)[C@H]1O. Kind of data set: purified protein. Particulars: Mn2+ substrate-binding site.

5 compounds from publication PMC11064632, “Tetracyclic homoisoflavanoid (+)-brazilin: a natural product inhibits c-di-AMP-producing enzyme and Streptococcus mutans biofilms” (Microbiology Spectrum, 2024) can be followed below.

Where a name gives a salt, the structure may show the parent alone.

T1 sequence (Q8DTC4 entry or part of it): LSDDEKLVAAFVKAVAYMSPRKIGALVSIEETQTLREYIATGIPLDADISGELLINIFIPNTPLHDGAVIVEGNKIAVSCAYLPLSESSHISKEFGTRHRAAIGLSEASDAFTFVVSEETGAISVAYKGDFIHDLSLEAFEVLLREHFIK

For the compound `O=C1NC(=S)N/C1=C\c1cc(Br)cc(Br)c1O` [bromophenol thiohydantoin], the inhibition at 50 µM in data set [1] is 3.7%.
With `Cc1ccc(C(=O)Nc2ccc(S(=O)(=O)O)c3cc(S(=O)(=O)O)cc(S(=O)(=O)O)c23)cc1NC(=O)c1cccc(NC(=O)Nc2cccc(C(=O)Nc3cc(C(=O)Nc4ccc(S(=O)(=O)O)c5cc(S(=O)(=O)O)cc(S(=O)(=O)O)c45)ccc3C)c2)c1` [suramin hexasodium salt], in data set [1], the inhibition at 50 µM worked out at 1.2%.
As for `O=C(OC[C@H]1O[C@@H](OC(=O)c2cc(O)c(O)c(OC(=O)c3cc(O)c(O)c(O)c3)c2)[C@H](OC(=O)c2cc(O)c(O)c(OC(=O)c3cc(O)c(O)c(O)c3)c2)[C@@H](OC(=O)c2cc(O)c(O)c(OC(=O)c3cc(O)c(O)c(O)c3)c2)[C@@H]1OC(=O)c1cc(O)c(O)c(OC(=O)c2cc(O)c(O)c(O)c2)c1)c1cc(O)c(O)c(OC(=O)c2cc(O)c(O)c(O)c2)c1` [tannic acid], the inhibition at 50 µM in data set [1] amounted to 22.2%.
Take `Oc1ccc2c(c1)OC[C@]1(O)Cc3cc(O)c(O)cc3[C@H]21` [NSC 8661, (+)-brazilin]: in data set [1], the inhibition at 50 µM came to 77.8% and the inhibition at 100 µM worked out at 87.1%. For the same compound, the affinity in data set [2], expressed as Kd, was 11.9 µM.
For the compound “smDAC (S. mutans diadenylate cyclase, CdaA/DacA family) (Streptococcus mutans UA159)”, in data set [3], the Km is reported as 93.0 ± 3.98 µM and the Vmax is 5.54 µM/min.

For orientation: inhibition means the relative decrease from the control value, in per cent. One may read the Kd as a measure of binding affinity in units of concentration. For orientation: Km means the concentration of substrate that gives half-maximal velocity. The Vmax is the rate approached at saturating substrate.
